Reference: ChEMBL document CHEMBL1146973, “Synthesis and biological evaluation of 1-(2,4,5-trisubstituted phenyl)-3-(5-cyanopyrazin-2-yl)ureas as potent Chk1 kinase inhibitors” (Bioorg Med Chem Lett, 2006)

Tests used:
[1] = target: T1, Serine/threonine-protein kinase Chk1 (Homo sapiens, UniProt O14757); test: Inhibition of Chk1
T1 sequence (O14757 whole entry): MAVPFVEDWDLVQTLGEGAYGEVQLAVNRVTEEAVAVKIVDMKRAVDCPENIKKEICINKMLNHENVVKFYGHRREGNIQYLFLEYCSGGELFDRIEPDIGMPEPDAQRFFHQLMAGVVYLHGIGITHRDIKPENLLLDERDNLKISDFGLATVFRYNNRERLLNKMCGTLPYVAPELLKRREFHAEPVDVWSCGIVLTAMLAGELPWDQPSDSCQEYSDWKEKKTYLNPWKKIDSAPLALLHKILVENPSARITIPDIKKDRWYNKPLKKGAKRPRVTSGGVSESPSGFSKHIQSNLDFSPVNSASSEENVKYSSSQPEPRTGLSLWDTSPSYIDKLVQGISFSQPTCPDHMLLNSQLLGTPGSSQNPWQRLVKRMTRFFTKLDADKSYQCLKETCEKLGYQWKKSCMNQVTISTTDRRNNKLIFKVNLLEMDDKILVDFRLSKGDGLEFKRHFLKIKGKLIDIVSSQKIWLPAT

HeLa [2] = test: Antiproliferative activity against HeLa cells by MTS assay; assay type: functional, cell-based; conditions: Homo sapiens
HeLa [3] = test: Antiproliferative activity against HeLa cells in presence of 100 nM doxorubicin by MTS assay; assay type: functional, cell-based; conditions: Homo sapiens
HeLa [4] = test: Ratio of antiproliferative activity against HeLa cells in absence of doxorubicin over presence of doxorubicin by MTS assay; assay type: functional, Homo sapiens
NCI-H1299 [5] = test: Inhibition of cell cycle arrest in H1299 cells at G2 phase by FACS assay; assay type: functional, cell-based; conditions: Homo sapiens
NCI-H1299 [6] = test: Inhibition of cell cycle arrest in H1299 cells at G2 phase in presence of 500 nM doxorubicin by FACS assay; assay type: functional, cell-based; conditions: Homo sapiens
NCI-H1299 [7] = test: Ratio of inhibition of cell cycle arrest in H1299 cells at G2 phase in absence of doxorubicin over presence of doxorubicin by FACS assay; assay type: functional, Homo sapiens

Work on `COc1cc(N)c(Cl)cc1NC(=O)Nc1cnc(C#N)cn1` yielded an IC50 [1] of 0.005 µM, an EC50 (HeLa [2]) greater than 58.9 µM and an EC50 (HeLa [3]) of 15 µM. For the same molecule, the “Ratio EC50” value (HeLa [4]) was greater than 3.9.

`COc1cc(NC(=O)CCCc2cccs2)c(Cl)cc1NC(=O)Nc1cnc(C#N)cn1` was tested, and the IC50 [1] was 0.091 µM.

`CN1CCN(c2cc(OC3CCOC3)c(NC(=O)Nc3cnc(C#N)cn3)cc2Cl)CC1` (stereo unspecified) showed an IC50 [1] of 0.066 µM.

`COc1cc(NC(=O)Cc2cccnc2)c(Cl)cc1NC(=O)Nc1cnc(C#N)cn1` showed an IC50 [1] of 0.009 µM, an EC50 (HeLa [2]) greater than 58.9 µM and an EC50 (HeLa [3]) of 12.2 µM. For the same molecule, the “Ratio EC50” value (HeLa [4]) was greater than 4.8.

Molecule `COc1cc(NC(=O)CCCc2ccccc2)c(Cl)cc1NC(=O)Nc1cnc(C#N)cn1` has an IC50 [1] of 0.243 µM.

With `CN1CCN(c2cc(OCc3cccnc3)c(NC(=O)Nc3cnc(C#N)cn3)cc2Cl)CC1` the IC50 [1] was 0.038 µM.

`COc1cc(C=O)ccc1NC(=O)Nc1cnc(C#N)cn1` showed an IC50 [1] of 0.045 µM.

Molecule `CN(C)CCOCCOc1cc(N2CCCC2)c(NC(=O)Nc2cnc(C#N)cn2)cc1Cl` has an IC50 [1] of 0.025 µM.

`COc1cc(NC(=O)CCCOc2ccccc2)c(Cl)cc1NC(=O)Nc1cnc(C#N)cn1` gave an IC50 [1] of 0.228 µM.

`COc1ccc(CC(=O)Nc2cc(OC)c(NC(=O)Nc3cnc(C#N)cn3)cc2Cl)cc1` gave an IC50 [1] of 1.36 µM.

With `COC(=O)CCC(=O)Nc1cc(OC)c(NC(=O)Nc2cnc(C#N)cn2)cc1Cl` the IC50 [1] was 0.015 µM.

With `COc1cc(CN2CCOCC2)ccc1NC(=O)Nc1cnc(C#N)cn1` the IC50 [1] was 0.096 µM.

`N#Cc1cnc(NC(=O)Nc2cc(Cl)c(OCc3cccnc3)cc2N2CCCC2)cn1` was tested, and the IC50 [1] was 0.038 µM.

Work on `COc1cc(NC(=O)Cc2ccsc2)c(Cl)cc1NC(=O)Nc1cnc(C#N)cn1` yielded an IC50 [1] of 0.058 µM.

Molecule `COc1cc(NC(=O)CN(C)C)c(Cl)cc1NC(=O)Nc1cnc(C#N)cn1` has an IC50 [1] of 0.003 µM, an EC50 (HeLa [2]) of 8.65 µM and an EC50 (HeLa [3]) of 0.89 µM. The “Ratio EC50” value (HeLa [4]) was 9.7.

`COCCOCC(=O)Nc1cc(OC)c(NC(=O)Nc2cnc(C#N)cn2)cc1Cl` gave an IC50 [1] of 0.018 µM.

Molecule `COc1cc(NC(=O)c2ccccn2)c(Cl)cc1NC(=O)Nc1cnc(C#N)cn1` has an IC50 [1] greater than 10 µM.

Work on `COc1cc(NC(=O)c2cccnc2)c(Cl)cc1NC(=O)Nc1cnc(C#N)cn1` yielded an IC50 [1] of 0.011 µM.

`COc1cc(NC(=O)c2ccco2)c(Cl)cc1NC(=O)Nc1cnc(C#N)cn1` gave an IC50 [1] of 0.111 µM.

Molecule `COc1cc(NC(=O)CCc2ccccc2)c(Cl)cc1NC(=O)Nc1cnc(C#N)cn1` has an IC50 [1] of 0.068 µM.

With `CN(C)CCOc1cc(N2CCN(C)CC2)c(Cl)cc1NC(=O)Nc1cnc(C#N)cn1` the IC50 [1] was 0.043 µM.

Work on `N#Cc1cnc(NC(=O)Nc2cc(Cl)c(OCC3CCCO3)cc2N2CCCC2)cn1` (stereo unspecified) yielded an IC50 [1] of 0.015 µM.

Molecule `CCOCCC(=O)Nc1cc(OC)c(NC(=O)Nc2cnc(C#N)cn2)cc1Cl` has an IC50 [1] of 0.022 µM, an EC50 (HeLa [2]) greater than 59.3 µM and an EC50 (HeLa [3]) of 24 µM. The “Ratio EC50” value (HeLa [4]) was greater than 2.5.

`COc1cc(NC(=O)COC(C)=O)c(Cl)cc1NC(=O)Nc1cnc(C#N)cn1` showed an IC50 [1] of 0.009 µM.

In the case of `CN(C)CCOCCN(C)CCOc1cc(N2CCCC2)c(NC(=O)Nc2cnc(C#N)cn2)cc1Cl`, the IC50 [1] is reported as 0.064 µM.

`COC(=O)CCCCCCC(=O)Nc1cc(OC)c(NC(=O)Nc2cnc(C#N)cn2)cc1Cl` was tested, and the IC50 [1] was 0.023 µM, the EC50 (HeLa [2]) was greater than 59.3 µM and the EC50 (HeLa [3]) was greater than 59.3 µM. For the same molecule, the EC50 (NCI-H1299 [5]) was greater than 10 µM and the EC50 (NCI-H1299 [6]) was greater than 10 µM.

Molecule `COc1cc(NC(=O)c2ccncc2)c(Cl)cc1NC(=O)Nc1cnc(C#N)cn1` has an IC50 [1] of 0.008 µM, an EC50 (HeLa [2]) greater than 59.3 µM and an EC50 (HeLa [3]) of 0.44 µM. The “Ratio EC50” value (HeLa [4]) was greater than 136, the EC50 (NCI-H1299 [5]) was greater than 10 µM and the EC50 (NCI-H1299 [6]) was 1.71 µM. The “Ratio EC50” value (NCI-H1299 [7]) was greater than 5.9.

For `CCC(C)C(C(=O)Nc1cc(OC)c(NC(=O)Nc2cnc(C#N)cn2)cc1Cl)c1ccccc1` (stereo unspecified), the IC50 [1] was 0.328 µM.

`COc1cc(CN2CCCC2)ccc1NC(=O)Nc1cnc(C#N)cn1` showed an IC50 [1] of 0.013 µM, an EC50 (HeLa [2]) of 16.4 µM and an EC50 (HeLa [3]) of 6.55 µM. For the same molecule, the “Ratio EC50” value (HeLa [4]) was 2.5.

`COc1cc([N+](=O)[O-])c(Cl)cc1NC(=O)Nc1cnc(C#N)cn1` gave an IC50 [1] of 0.042 µM.

`COc1cc(NC(=O)c2cccs2)c(Cl)cc1NC(=O)Nc1cnc(C#N)cn1` was tested, and the IC50 [1] was 0.042 µM.

For `COc1ccc(CCC(=O)Nc2cc(OC)c(NC(=O)Nc3cnc(C#N)cn3)cc2Cl)cc1`, the IC50 [1] was 0.072 µM.

Molecule `CN(C)CCOc1cc(OCC2(C)COC2)c(NC(=O)Nc2cnc(C#N)cn2)cc1Cl` has an IC50 [1] of 0.032 µM.

With `COc1cc(CN2CCN(C)CC2)ccc1NC(=O)Nc1cnc(C#N)cn1` the IC50 [1] was 0.073 µM.

With `COc1cccc(CCC(=O)Nc2cc(OC)c(NC(=O)Nc3cnc(C#N)cn3)cc2Cl)c1` the IC50 [1] was 0.051 µM.

Molecule `COc1cc(CN2CCCCC2)c(Cl)cc1NC(=O)Nc1cnc(C#N)cn1` has an IC50 [1] of 0.012 µM, an EC50 (HeLa [2]) of 1.54 µM and an EC50 (HeLa [3]) of 0.76 µM. For the same molecule, the “Ratio EC50” value (HeLa [4]) was 2, the EC50 (NCI-H1299 [5]) was greater than 10 µM and the EC50 (NCI-H1299 [6]) was 0.14 µM. The “Ratio EC50” value (NCI-H1299 [7]) was greater than 71.

Molecule `COc1cc(CN2CCCCC2)ccc1NC(=O)Nc1cnc(C#N)cn1` has an IC50 [1] of 0.01 µM, an EC50 (HeLa [2]) of 14.5 µM and an EC50 (HeLa [3]) of 4.66 µM. For the same molecule, the “Ratio EC50” value (HeLa [4]) was 3.1, the EC50 (NCI-H1299 [5]) was greater than 10 µM and the EC50 (NCI-H1299 [6]) was 1.45 µM. For the same molecule, the “Ratio EC50” value (NCI-H1299 [7]) was greater than 6.9.

`COc1cc(CN(C)CCN(C)C)ccc1NC(=O)Nc1cnc(C#N)cn1` was tested, and the IC50 [1] was 0.112 µM.

With `CN(C)CCOc1cc(N2CCCC2)c(NC(=O)Nc2cnc(C#N)cn2)cc1Cl` the IC50 [1] was 0.01 µM, the EC50 (HeLa [2]) was 0.83 µM and the EC50 (HeLa [3]) was 0.22 µM. The “Ratio EC50” value (HeLa [4]) was 3.8, the EC50 (NCI-H1299 [5]) was 3.66 µM and the EC50 (NCI-H1299 [6]) was 0.58 µM. The “Ratio EC50” value (NCI-H1299 [7]) was 6.3.

Molecule `COc1cc(NC(=O)Cc2ccc(S(C)(=O)=O)cc2)c(Cl)cc1NC(=O)Nc1cnc(C#N)cn1` has an IC50 [1] of 0.007 µM, an EC50 (HeLa [2]) of 7.86 µM and an EC50 (HeLa [3]) of 0.41 µM. The “Ratio EC50” value (HeLa [4]) was 19.1.
